Data from ChEMBL document CHEMBL5465560, “Selectivity Literature for EUbOPEN Chemogenomic Library” (2024).

Assays:
[1] = target: T1, Peripheral plasma membrane protein CASK (Homo sapiens) (UniProt O14936); test: Selectivity interaction (KinomeScan (DiscoverX)) EUB0000092b CASK; settings: at 10 µM
T1 sequence (whole entry): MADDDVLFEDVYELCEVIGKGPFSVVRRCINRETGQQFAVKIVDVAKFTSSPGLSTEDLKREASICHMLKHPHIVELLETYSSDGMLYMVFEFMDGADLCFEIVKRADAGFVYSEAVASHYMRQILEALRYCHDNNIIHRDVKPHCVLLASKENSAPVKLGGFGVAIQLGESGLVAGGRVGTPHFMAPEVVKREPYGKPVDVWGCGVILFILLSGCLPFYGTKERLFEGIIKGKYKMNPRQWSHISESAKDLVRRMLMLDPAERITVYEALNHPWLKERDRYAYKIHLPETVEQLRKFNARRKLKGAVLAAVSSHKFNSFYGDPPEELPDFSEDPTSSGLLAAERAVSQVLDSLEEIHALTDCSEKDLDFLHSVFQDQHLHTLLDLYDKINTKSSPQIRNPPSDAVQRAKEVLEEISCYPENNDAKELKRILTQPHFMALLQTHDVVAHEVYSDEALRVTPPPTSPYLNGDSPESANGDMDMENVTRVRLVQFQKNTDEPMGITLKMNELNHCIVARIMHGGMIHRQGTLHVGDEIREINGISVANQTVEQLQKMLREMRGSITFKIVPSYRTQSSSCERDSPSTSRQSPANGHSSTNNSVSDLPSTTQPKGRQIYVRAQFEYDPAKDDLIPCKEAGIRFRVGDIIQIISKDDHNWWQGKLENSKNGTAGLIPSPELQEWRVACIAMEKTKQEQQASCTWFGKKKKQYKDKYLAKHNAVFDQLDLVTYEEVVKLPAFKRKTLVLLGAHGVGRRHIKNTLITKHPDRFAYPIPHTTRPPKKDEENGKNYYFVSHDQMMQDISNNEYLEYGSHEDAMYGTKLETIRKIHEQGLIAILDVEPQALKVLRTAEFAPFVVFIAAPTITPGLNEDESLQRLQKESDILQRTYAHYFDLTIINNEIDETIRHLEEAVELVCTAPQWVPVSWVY

[2] = target: T2, Serine/threonine-protein kinase ULK1 (Homo sapiens) (UniProt O75385); test: Selectivity interaction (Kinase panel (KiNativ target engagement assay in Jurkat cells)) EUB0001635a ULK1; type: cell-based; settings: Selectivity number of off-targets 0.0, Selectivity number of targets 233.0, Source Knowledge https://www.sciencedirect.com/science/article/pii/S2451945619300674?via%3Dihub, at 1 µM
T2 sequence (whole entry): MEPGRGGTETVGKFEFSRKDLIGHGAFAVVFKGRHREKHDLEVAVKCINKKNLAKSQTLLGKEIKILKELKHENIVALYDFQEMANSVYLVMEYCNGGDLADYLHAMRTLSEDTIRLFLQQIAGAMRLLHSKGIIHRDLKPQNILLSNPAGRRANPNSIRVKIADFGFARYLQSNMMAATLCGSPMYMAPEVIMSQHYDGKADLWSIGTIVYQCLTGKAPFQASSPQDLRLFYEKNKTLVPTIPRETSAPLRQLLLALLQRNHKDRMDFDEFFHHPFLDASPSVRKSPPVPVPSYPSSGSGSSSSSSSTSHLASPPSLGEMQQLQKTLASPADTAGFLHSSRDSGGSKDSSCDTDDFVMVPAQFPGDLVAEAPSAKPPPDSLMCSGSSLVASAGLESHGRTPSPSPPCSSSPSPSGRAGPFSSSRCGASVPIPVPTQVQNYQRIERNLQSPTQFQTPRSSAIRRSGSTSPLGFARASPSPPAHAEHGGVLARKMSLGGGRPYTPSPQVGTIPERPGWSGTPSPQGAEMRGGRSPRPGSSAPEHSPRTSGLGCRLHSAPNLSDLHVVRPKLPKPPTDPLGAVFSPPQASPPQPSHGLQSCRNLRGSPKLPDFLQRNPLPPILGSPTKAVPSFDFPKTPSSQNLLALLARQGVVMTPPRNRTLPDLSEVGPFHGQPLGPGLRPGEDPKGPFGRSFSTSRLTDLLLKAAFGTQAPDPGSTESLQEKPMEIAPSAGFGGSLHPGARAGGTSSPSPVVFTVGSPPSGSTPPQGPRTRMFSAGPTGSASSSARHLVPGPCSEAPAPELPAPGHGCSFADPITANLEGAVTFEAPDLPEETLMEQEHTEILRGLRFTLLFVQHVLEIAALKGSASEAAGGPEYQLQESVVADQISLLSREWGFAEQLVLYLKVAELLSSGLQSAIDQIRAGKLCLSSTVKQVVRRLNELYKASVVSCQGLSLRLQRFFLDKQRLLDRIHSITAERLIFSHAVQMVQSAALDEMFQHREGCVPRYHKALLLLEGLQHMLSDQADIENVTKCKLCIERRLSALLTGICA

[3] = target: Tyrosine-protein kinase Fes/Fps (Homo sapiens) (UniProt P07332); test: Selectivity interaction (Kinase panel (Z-LYTE Assay)) EUB0001632a FES; settings: at 10 µM
Chain of Tyrosine-protein kinase Fes/Fps (Homo sapiens) (P07332 whole entry): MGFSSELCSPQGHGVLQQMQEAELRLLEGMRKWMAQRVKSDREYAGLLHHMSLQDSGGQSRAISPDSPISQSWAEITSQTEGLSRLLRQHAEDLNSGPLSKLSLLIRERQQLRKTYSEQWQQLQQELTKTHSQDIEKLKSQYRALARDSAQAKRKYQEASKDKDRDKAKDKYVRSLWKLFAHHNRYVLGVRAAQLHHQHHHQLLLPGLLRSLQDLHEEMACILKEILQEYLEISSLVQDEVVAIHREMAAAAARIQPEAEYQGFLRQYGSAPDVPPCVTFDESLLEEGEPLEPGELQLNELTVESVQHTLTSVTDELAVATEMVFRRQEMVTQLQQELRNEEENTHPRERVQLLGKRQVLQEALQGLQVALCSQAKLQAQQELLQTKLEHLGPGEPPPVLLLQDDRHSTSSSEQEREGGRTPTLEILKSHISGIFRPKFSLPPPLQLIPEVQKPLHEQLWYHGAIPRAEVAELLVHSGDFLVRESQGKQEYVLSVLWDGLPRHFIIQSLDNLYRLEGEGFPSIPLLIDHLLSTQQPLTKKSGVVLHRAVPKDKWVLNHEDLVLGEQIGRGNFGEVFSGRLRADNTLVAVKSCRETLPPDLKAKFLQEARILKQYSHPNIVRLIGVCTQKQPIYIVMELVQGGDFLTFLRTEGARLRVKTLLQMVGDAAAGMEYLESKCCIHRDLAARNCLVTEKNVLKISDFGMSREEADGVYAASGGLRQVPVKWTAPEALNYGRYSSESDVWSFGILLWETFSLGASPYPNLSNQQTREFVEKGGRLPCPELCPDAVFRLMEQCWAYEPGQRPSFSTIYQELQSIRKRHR

[4] = target: T3, NUAK family SNF1-like kinase 1 (Homo sapiens) (UniProt O60285); test: Selectivity interaction (KinomeScan (DiscoverX)) EUB0000595a NUAK1; settings: at 10 µM
T3 sequence (whole entry): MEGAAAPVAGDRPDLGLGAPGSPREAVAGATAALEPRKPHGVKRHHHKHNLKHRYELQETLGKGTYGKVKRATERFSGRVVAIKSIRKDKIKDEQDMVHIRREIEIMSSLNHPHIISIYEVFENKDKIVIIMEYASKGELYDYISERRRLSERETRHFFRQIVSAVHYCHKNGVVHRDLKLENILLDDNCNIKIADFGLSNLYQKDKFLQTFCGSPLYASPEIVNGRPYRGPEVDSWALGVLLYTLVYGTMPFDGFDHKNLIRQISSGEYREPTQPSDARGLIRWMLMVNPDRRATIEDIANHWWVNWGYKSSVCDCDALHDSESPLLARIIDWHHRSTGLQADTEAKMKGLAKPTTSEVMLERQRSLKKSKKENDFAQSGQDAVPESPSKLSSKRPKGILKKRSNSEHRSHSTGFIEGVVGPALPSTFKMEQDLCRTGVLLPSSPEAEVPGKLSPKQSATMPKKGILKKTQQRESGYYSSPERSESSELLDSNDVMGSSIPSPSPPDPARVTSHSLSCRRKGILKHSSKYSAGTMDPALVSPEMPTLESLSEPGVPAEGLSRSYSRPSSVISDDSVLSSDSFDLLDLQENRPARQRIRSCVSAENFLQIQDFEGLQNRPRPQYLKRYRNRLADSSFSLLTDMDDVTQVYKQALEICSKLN

CCC(=O)N1CCN(c2ccc(-n3c(=O)ccc4cnc5ccc(-c6cnc7ccccc7c6)cc5c43)cc2C(F)(F)F)CC1
% of control [1]: 100%

C=CC(=O)Nc1ccc(C(=O)Nc2[nH]nc3c2CN(C(=O)N[C@H](CN(C)C)c2ccccc2)C3(C)C)cc1
% of engagement [2]: 5.7%

Cn1cc(-n2cnc3c(NCc4nc5cc(Cl)c(Cl)cc5[nH]4)nc(N4CCOCC4)nc32)cn1
% of control [3]: 3.47%

COCC(=O)NC/C=C/c1ccc2ncnc(Nc3ccc(Oc4ccc(C)nc4)c(C)c3)c2c1 [CP-724714]
% of control [4]: 100%
